The values below come from ChEMBL document CHEMBL1153962, “Thiodisaccharides with galactofuranose or arabinofuranose as terminal units: synthesis and inhibitory activity of an exo beta-D-galactofuranosidase” (Bioorg Med Chem, 2009).

pIC50: −log10 of the molar value. Activity calls are given as the source filed them. No cut-off for these calls is given here.

One test concerns Penicillium fellutanum. Put plainly: Inhibition of Penicillium fellutanum exo beta-D-galactofuranosidase assessed as 4-nitrophenol release at 0.2 to 1 mM by spectrophotometry.
Test [1] in a line: Inhibition of Penicillium fellutanum exo beta-D-galactofuranosidase assessed as 4-nitrophenol release by spectrophotometry.

Turning to `CO[C@H]1O[C@H](CS[C@@H]2O[C@@H](CO)[C@H](O)[C@H]2O)[C@@H](O)[C@H](O)[C@H]1O`, in the test on Penicillium fellutanum, the result was inactive.

As a reminder, the pIC50 is the IC50 on a negative log10 scale, so that one unit is a factor of ten. As for `CC1(C)O[C@H]2[C@@H](O1)[C@@H](CS[C@@H]1O[C@@H]([C@H](O)CO)[C@H](O)[C@H]1O)O[C@@H]1OC(C)(C)O[C@@H]12`, in the test on Penicillium fellutanum, the result was Active. In addition, the pIC50 in test [1] was under 3.00. `O=C1O[C@@H]([C@H](O)CO)[C@H](O)[C@H]1O`: in test [1], the pIC50 is 4.70.

Regarding `CO[C@H]1O[C@H](CS[C@@H]2O[C@@H]([C@H](O)CO)[C@H](O)[C@H]2O)[C@H](O)[C@H](O)[C@H]1O`, the result in the test with Penicillium fellutanum was Active. Besides, the negative-log IC50 (pIC50) in test [1] was under 3.00.
